Source: ChEMBL document CHEMBL3885861, “Open TG-GATES”

Species on record: Rattus norvegicus
Assay: Open TG-GATES - Regimen: Single
Assay type: toxicity, organism-based, Sprague-Dawley
Design: regimen Single, gender Male, age 6 weeks
Settings: in vivo, po, 10 mg/kg, route gavage, dose level Low; for APTT / Bas / Eos / Fbg / Hb / Ht / Lym / MCH / MCHC / MCV / Mono / Neu / PT / Plat / RBC / Ret / WBC: tissue Blood; for KIDNEY_L / KIDNEY_R / KIDNEY_TOTAL: tissue Kidney; for LIVER: tissue Liver; for A/G / ALP / ALT / AST / BUN / CRE / Ca / Cl / DBIL / GLC / IP / K / LDH / Na / PL / RALB / TBIL / TC / TG / TP / gamma-GTP: tissue Plasma

## CCN(CC)N=O [N-NITROSODIETHYLAMINE]
3 h
  TERMINAL_BW: 222.2 g
  APTT: 18.5 s
  Bas: 0.4%
  Eos: 0.8%
  Fbg: 221.2 mg/dL
  Hb: 13.4 g/dL
  Ht: 39.5%
  Lym: 74.8%
  MCH: 21.3 pg
  MCHC: 33.9%
  MCV: 62.8 fL
  Mono: 2.2%
  Neu: 21.2%
  PT: 12.3 s
  Plat: 120.1 x10_4/uL
  RBC: 629.8 x10_4/ul
  Ret: 7.4%
  WBC: 85.8 x10_2/uL
  KIDNEY_L: 1 g
  KIDNEY_R: 1 g
  KIDNEY_TOTAL: 2 g
  LIVER: 9.3 g
  A/G: 1.7
  ALP: 906.2 IU/L
  ALT: 45 IU/L
  AST: 74.4 IU/L
  BUN: 10.8 mg/dL
  CRE: 0.4 mg/dL
  Ca: 10.2 mg/dL
  Cl: 103 meq/L
  DBIL: 0.062 mg/dL
  GLC: 190.2 mg/dL
  IP: 8.8 mg/dL
  K: 3.6 meq/L
  LDH: 194 IU/L
  Na: 141.2 meq/L
  PL: 123.4 mg/dL
  RALB: 3.4 g/dL
  TBIL: 0.1 mg/dL
  TC: 77.4 mg/dL
  TG: 34 mg/dL
  TP: 5.4 g/dL
  gamma-GTP: 1 IU/L
6 h
  TERMINAL_BW: 226.2 g
  APTT: 18.6 s
  Bas: 0.6%
  Eos: 1%
  Fbg: 235 mg/dL
  Hb: 13.3 g/dL
  Ht: 39.1%
  Lym: 78%
  MCH: 20.7 pg
  MCHC: 34%
  MCV: 60.9 fL
  Mono: 2.4%
  Neu: 17.4%
  PT: 12.1 s
  Plat: 127.1 x10_4/uL
  RBC: 642.4 x10_4/ul
  Ret: 6.1%
  WBC: 90.2 x10_2/uL
  KIDNEY_L: 1 g
  KIDNEY_R: 1 g
  KIDNEY_TOTAL: 2 g
  LIVER: 10.3 g
  A/G: 1.5
  ALP: 923.4 IU/L
  ALT: 39 IU/L
  AST: 69 IU/L
  BUN: 14.2 mg/dL
  CRE: 0.4 mg/dL
  Ca: 10.4 mg/dL
  Cl: 103.2 meq/L
  DBIL: 0.078 mg/dL
  GLC: 199.2 mg/dL
  IP: 7.6 mg/dL
  K: 3.7 meq/L
  LDH: 220.8 IU/L
  Na: 140.6 meq/L
  PL: 144 mg/dL
  RALB: 3.3 g/dL
  TBIL: 0.1 mg/dL
  TC: 81 mg/dL
  TG: 62.6 mg/dL
  TP: 5.6 g/dL
  gamma-GTP: 1.2 IU/L
9 h
  TERMINAL_BW: 226.3 g
  APTT: 18.1 s
  Bas: 0.8%
  Eos: 1%
  Fbg: 222.4 mg/dL
  Hb: 14 g/dL
  Ht: 40.2%
  Lym: 80.6%
  MCH: 21.7 pg
  MCHC: 34.8%
  MCV: 62.1 fL
  Mono: 2.4%
  Neu: 14.4%
  PT: 12.2 s
  Plat: 123.8 x10_4/uL
  RBC: 647 x10_4/ul
  Ret: 6.7%
  WBC: 100.3 x10_2/uL
  KIDNEY_L: 0.9 g
  KIDNEY_R: 1 g
  KIDNEY_TOTAL: 1.9 g
  LIVER: 10.3 g
  A/G: 1.6
  ALP: 1025.2 IU/L
  ALT: 38.6 IU/L
  AST: 67.2 IU/L
  BUN: 14.4 mg/dL
  CRE: 0.4 mg/dL
  Ca: 10.7 mg/dL
  Cl: 103.2 meq/L
  DBIL: 0.09 mg/dL
  GLC: 188.4 mg/dL
  IP: 8.3 mg/dL
  K: 3.9 meq/L
  LDH: 169.8 IU/L
  Na: 141.4 meq/L
  PL: 141.4 mg/dL
  RALB: 3.5 g/dL
  TBIL: 0.1 mg/dL
  TC: 76 mg/dL
  TG: 90.4 mg/dL
  TP: 5.7 g/dL
  gamma-GTP: 1.2 IU/L
24 h
  TERMINAL_BW: 229.3 g
  APTT: 19.1 s
  Bas: 0.4%
  Eos: 1%
  Fbg: 235.6 mg/dL
  Hb: 13.5 g/dL
  Ht: 39.9%
  Lym: 78.4%
  MCH: 21.2 pg
  MCHC: 33.9%
  MCV: 62.5 fL
  Mono: 3%
  Neu: 16.6%
  PT: 11.9 s
  Plat: 124.7 x10_4/uL
  RBC: 638.2 x10_4/ul
  Ret: 6.6%
  WBC: 79.1 x10_2/uL
  KIDNEY_L: 1 g
  KIDNEY_R: 1 g
  KIDNEY_TOTAL: 2 g
  LIVER: 10.1 g
  A/G: 1.5
  ALP: 877 IU/L
  ALT: 34.8 IU/L
  AST: 64.4 IU/L
  BUN: 14.4 mg/dL
  CRE: 0.4 mg/dL
  Ca: 10.7 mg/dL
  Cl: 104.6 meq/L
  DBIL: 0.086 mg/dL
  GLC: 202.8 mg/dL
  IP: 9.4 mg/dL
  K: 4 meq/L
  LDH: 208.6 IU/L
  Na: 141.6 meq/L
  PL: 142.6 mg/dL
  RALB: 3.3 g/dL
  TBIL: 0.1 mg/dL
  TC: 73.8 mg/dL
  TG: 86.4 mg/dL
  TP: 5.5 g/dL
  gamma-GTP: 1.4 IU/L
